Experimental data taken from ChEMBL document CHEMBL1150976, “The selectivity of protein kinase inhibitors: a further update” (Biochem J, 2007).

What was measured:
[1] = target: T1, Mitogen-activated protein kinase 13 (Homo sapiens) (UniProt O15264); assay: Percentage p38delta activity remaining in the presence of 0.1uM inhibitor
T1 sequence (whole entry): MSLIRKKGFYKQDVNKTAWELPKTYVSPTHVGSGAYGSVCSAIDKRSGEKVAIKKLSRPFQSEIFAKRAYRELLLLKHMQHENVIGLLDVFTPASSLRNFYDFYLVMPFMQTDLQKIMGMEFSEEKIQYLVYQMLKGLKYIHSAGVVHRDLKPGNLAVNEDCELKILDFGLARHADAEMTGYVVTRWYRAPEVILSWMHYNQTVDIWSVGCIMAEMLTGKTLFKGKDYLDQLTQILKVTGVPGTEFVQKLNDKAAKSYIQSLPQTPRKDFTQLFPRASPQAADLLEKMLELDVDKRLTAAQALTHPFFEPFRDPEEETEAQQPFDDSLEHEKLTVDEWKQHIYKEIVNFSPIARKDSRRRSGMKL

[2] = target: T2, Serine/threonine-protein kinase D1 (Homo sapiens) (UniProt Q15139); assay: Percentage PKD1 activity remaining in the presence of 0.1uM inhibitor
T2 sequence (whole entry): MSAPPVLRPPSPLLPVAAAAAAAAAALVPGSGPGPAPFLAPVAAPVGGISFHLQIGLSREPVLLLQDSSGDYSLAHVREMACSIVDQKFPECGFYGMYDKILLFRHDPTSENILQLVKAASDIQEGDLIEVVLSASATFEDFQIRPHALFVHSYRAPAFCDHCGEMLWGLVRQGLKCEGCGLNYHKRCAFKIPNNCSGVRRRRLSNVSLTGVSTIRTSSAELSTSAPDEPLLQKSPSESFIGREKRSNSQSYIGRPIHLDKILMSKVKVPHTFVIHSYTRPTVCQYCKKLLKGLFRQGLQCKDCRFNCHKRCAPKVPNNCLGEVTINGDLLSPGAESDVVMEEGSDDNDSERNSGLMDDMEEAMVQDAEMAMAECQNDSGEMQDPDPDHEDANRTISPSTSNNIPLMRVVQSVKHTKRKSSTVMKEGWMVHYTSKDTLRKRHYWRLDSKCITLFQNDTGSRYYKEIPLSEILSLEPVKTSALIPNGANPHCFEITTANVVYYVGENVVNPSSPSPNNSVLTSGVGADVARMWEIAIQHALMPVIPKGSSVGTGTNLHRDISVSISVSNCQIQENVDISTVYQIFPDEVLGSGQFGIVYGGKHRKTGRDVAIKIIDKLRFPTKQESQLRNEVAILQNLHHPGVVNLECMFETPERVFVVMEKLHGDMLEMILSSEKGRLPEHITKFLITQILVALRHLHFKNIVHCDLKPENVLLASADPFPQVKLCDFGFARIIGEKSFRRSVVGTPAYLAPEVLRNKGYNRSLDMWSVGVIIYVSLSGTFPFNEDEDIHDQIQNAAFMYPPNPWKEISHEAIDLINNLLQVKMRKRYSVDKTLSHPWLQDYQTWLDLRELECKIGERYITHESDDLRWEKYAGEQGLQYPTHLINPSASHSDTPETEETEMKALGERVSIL

[3] = target: Mitogen-activated protein kinase 8 (Homo sapiens, UniProt P45983); assay: Percentage JNK1 activity remaining in the presence of 0.1uM inhibitor
Chain of Mitogen-activated protein kinase 8 (P45983 whole entry): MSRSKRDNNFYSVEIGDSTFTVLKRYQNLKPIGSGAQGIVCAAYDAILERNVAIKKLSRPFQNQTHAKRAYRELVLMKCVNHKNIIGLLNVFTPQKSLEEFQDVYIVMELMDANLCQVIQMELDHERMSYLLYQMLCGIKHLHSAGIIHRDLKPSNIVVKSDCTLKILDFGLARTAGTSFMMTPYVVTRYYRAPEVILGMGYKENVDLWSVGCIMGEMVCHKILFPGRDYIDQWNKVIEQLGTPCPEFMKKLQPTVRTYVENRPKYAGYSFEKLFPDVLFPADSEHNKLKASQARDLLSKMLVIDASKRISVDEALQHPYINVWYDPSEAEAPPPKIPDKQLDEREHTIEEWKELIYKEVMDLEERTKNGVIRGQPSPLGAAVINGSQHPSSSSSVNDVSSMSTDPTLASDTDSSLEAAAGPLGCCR

[4] = target: Protein kinase C alpha type (Homo sapiens) (UniProt P17252); assay: Percentage PKCalpha activity remaining in the presence of 0.1uM inhibitor
[5] = target: Dual specificity mitogen-activated protein kinase kinase 1 (Homo sapiens) (UniProt Q02750); assay: Percentage MKK1 activity remaining in the presence of 0.1uM inhibitor
Chain of Dual specificity mitogen-activated protein kinase kinase 1 (Homo sapiens) (Q02750 whole entry): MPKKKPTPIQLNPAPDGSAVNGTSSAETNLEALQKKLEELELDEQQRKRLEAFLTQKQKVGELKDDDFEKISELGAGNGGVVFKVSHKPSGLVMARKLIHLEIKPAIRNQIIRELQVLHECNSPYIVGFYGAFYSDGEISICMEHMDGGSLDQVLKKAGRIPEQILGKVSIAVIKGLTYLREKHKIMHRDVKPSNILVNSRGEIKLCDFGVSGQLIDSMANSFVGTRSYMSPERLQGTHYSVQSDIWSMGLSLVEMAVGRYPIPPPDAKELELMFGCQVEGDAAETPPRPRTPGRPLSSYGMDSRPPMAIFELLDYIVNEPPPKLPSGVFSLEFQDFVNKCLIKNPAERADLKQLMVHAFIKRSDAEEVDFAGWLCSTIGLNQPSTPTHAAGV

[6] = target: Serine/threonine-protein kinase Chk2 (Homo sapiens) (UniProt O96017); assay: Percentage CHK2 activity remaining in the presence of 0.1uM inhibitor
Chain of Serine/threonine-protein kinase Chk2 (Homo sapiens) (O96017 whole entry): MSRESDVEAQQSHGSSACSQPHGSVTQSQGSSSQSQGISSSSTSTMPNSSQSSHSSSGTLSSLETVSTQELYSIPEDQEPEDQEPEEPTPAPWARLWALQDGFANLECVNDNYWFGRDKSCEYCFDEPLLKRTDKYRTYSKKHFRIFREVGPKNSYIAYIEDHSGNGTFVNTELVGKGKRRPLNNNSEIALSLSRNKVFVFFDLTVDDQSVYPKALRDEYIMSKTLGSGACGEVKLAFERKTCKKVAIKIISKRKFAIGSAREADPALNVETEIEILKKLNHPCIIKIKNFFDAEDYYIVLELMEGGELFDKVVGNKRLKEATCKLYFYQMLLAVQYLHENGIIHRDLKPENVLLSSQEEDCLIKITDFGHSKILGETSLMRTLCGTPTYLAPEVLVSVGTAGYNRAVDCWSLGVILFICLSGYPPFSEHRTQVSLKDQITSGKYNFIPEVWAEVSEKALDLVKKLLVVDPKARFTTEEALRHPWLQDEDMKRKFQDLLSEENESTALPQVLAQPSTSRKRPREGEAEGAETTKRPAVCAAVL

[7] = target: Proto-oncogene tyrosine-protein kinase Src (Gallus gallus) (UniProt P00523); assay: Percentage Src activity remaining in the presence of 0.1uM inhibitor
[8] = target: T3, Serine/threonine-protein kinase Nek2 (Homo sapiens) (UniProt P51955); assay: Percentage NEK2a activity remaining in the presence of 0.1uM inhibitor
T3 sequence (whole entry): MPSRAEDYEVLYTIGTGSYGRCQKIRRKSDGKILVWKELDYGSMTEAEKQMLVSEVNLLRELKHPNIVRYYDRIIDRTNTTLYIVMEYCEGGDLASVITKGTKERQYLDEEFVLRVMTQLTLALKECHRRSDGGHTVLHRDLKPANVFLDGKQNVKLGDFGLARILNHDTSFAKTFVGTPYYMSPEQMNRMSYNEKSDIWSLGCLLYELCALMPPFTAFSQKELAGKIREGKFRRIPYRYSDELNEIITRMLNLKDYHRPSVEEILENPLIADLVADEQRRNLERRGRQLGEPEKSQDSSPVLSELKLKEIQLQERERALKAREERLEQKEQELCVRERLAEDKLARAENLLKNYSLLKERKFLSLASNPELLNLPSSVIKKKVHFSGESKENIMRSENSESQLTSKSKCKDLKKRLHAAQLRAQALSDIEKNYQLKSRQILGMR

[9] = target: Serine/threonine-protein kinase Nek7 (Homo sapiens) (UniProt Q8TDX7); assay: Percentage NEK7 activity remaining in the presence of 0.1uM inhibitor
Chain of Serine/threonine-protein kinase Nek7 (Homo sapiens) (Q8TDX7 whole entry, looked up): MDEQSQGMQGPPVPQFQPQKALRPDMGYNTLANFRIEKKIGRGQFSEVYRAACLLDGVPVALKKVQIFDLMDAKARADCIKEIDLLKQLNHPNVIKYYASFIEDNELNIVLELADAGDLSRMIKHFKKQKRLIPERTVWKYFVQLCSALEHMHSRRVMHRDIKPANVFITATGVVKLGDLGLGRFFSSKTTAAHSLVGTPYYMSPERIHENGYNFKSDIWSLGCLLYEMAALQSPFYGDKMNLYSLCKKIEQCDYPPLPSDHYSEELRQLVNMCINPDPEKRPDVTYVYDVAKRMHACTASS

[10] = target: Dual specificity tyrosine-phosphorylation-regulated kinase 1A (Homo sapiens) (UniProt Q13627); assay: Percentage DYRK1A activity remaining in the presence of 0.1uM inhibitor
[11] = target: Serine/threonine-protein kinase PLK1 (Homo sapiens, UniProt P53350); assay: Percentage PLK1 activity remaining in the presence of 0.1uM inhibitor
Chain of Serine/threonine-protein kinase PLK1 (P53350 whole entry): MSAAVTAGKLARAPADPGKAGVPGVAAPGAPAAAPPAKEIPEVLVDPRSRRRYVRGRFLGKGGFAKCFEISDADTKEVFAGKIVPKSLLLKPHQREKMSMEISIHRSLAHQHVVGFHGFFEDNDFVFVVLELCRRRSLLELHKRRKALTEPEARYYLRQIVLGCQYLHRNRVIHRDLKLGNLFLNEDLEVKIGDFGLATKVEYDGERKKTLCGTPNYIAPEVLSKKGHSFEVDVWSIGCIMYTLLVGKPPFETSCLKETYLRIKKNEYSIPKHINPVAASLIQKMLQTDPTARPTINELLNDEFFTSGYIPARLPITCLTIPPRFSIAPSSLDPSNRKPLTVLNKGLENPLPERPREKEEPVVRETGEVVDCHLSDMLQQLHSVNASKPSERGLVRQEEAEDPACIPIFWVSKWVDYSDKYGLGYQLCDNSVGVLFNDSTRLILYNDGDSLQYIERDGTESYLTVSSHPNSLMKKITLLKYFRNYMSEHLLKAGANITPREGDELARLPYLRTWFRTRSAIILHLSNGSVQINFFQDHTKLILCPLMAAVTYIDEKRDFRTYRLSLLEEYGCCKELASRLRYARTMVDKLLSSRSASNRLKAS

[12] = target: T4, MAP kinase-activated protein kinase 5 (Homo sapiens) (UniProt Q8IW41); assay: Percentage PRAK activity remaining in the presence of 0.1uM inhibitor
T4 sequence (whole entry): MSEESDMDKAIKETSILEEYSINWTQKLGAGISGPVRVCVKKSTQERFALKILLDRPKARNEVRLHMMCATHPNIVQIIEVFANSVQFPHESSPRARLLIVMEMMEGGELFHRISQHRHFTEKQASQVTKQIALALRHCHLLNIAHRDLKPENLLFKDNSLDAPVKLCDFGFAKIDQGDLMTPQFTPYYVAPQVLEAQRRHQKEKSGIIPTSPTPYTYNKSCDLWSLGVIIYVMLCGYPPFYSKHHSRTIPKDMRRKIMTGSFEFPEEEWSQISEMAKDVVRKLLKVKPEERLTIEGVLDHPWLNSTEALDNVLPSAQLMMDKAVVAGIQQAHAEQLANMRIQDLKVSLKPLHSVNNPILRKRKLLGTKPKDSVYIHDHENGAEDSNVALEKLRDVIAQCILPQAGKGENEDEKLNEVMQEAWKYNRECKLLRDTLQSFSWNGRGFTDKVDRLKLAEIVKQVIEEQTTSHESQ

[13] = target: Calcium/calmodulin-dependent protein kinase kinase 2 (Homo sapiens) (UniProt Q96RR4); assay: Percentage CaMKKbeta activity remaining in the presence of 0.1uM inhibitor
Chain of Calcium/calmodulin-dependent protein kinase kinase 2 (Homo sapiens) (Q96RR4 2-588 limits assumed): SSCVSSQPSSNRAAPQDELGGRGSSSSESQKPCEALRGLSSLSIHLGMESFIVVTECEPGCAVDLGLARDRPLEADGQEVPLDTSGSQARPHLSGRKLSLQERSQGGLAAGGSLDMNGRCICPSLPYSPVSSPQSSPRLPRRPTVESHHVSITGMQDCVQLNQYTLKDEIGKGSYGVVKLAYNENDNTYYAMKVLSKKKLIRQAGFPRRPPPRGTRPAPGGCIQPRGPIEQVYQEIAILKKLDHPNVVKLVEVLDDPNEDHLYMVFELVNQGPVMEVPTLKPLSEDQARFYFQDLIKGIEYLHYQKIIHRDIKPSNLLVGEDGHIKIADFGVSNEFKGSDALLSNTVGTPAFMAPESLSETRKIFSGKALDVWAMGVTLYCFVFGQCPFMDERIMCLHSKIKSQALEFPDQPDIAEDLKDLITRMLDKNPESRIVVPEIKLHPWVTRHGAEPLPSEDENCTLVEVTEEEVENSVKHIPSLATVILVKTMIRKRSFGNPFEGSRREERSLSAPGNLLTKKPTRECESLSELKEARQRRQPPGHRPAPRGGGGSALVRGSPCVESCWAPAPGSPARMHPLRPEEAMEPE

[14] = target: Cyclin-dependent kinase 2/cyclin A (Homo sapiens) (UniProt P24941+P20248+P78396); assay: Percentage CDK2-cyclinA activity remaining in the presence of 0.1uM inhibitor; assay type: protein-complex assay

Cc1n[nH]c2ccc(-c3cncc(OC[C@@H](N)Cc4c[nH]c5ccccc45)c3)cc12
Activity [1]: 68%
Activity ([2]; filed as antagonist): 23%
Activity [3]: 90%
Activity ([4]; filed as antagonist): 29%
Activity [5]: 67%
Activity [6]: 95%
Activity [7]: 86%
Activity [8]: 95%
Activity [9]: 84%
Activity ([10]; filed as antagonist): 7%
Activity [11]: 80%
Activity [12]: 107%

CC(C)[C@H](CO)Nc1nc(Nc2cccc(Cl)c2)c2ncn(C(C)C)c2n1 [PURVALANOLA]
Activity [1]: 98%
Activity [2]: 85%
Activity [3]: 100%
Activity [4]: 77%
Activity [6]: 94%
Activity [13]: 60%
Activity ([7]; filed as antagonist): 14%
Activity [8]: 95%
Activity [9]: 105%
Activity [10]: 88%
Activity ([14]; filed as antagonist): 9%
Activity [11]: 81%
Activity [12]: 91%

Cn1c2ccccc2c2c3c(c4c5ccccc5n(CCC#N)c4c21)CNC3=O
Activity [1]: 82%
Activity ([2]; filed as antagonist): 5%
Activity [3]: 69%
Activity ([4]; filed as antagonist): 2%
Activity ([5]; filed as antagonist): 34%
Activity ([6]; filed as antagonist): 43%
Activity ([13]; filed as antagonist): 11%
Activity [7]: 65%
Activity [8]: 87%
Activity [9]: 98%
Activity ([10]; filed as antagonist): 30%
Activity ([14]; filed as antagonist): 8%
Activity [11]: 80%
Activity [12]: 76%

CC(C)CCN1c2nc(Nc3cc(F)c(O)c(F)c3)ncc2N(C)C(=O)C1C (configuration not stated)
Activity [1]: 105%
Activity [2]: 63%
Activity [3]: 88%
Activity [4]: 90%
Activity [5]: 98%
Activity [6]: 96%
Activity [13]: 73%
Activity [7]: 96%
Activity [8]: 98%
Activity [9]: 108%
Activity [10]: 96%
Activity [14]: 84%
Activity ([11]; filed as antagonist): 5%
Activity [12]: 89%

CN(C)C[C@@H]1CCn2cc(c3ccccc32)C2=C(C(=O)NC2=O)c2cn(c3ccccc23)CCO1
Activity [3]: 87%
Activity ([5]; filed as antagonist): 42%
Activity [6]: 92%
Activity [13]: 53%
Activity [7]: 97%
Activity [8]: 91%
Activity [9]: 104%
Activity [10]: 74%
Activity [14]: 68%
Activity [11]: 85%
Activity [12]: 82%

Cn1cc(C2=C(c3cn(CCCSC(=N)N)c4ccccc34)C(=O)NC2=O)c2ccccc21
Activity [1]: 92%
Activity [2]: 66%
Activity [3]: 93%
Activity ([4]; filed as antagonist): 3%
Activity [5]: 87%
Activity [6]: 99%
Activity [13]: 65%
Activity [7]: 91%
Activity [8]: 84%
Activity [9]: 101%
Activity ([10]; filed as antagonist): 31%
Activity ([14]; filed as antagonist): 3%
Activity [11]: 82%
Activity [12]: 80%

O=C(NCCCNc1nc(Nc2cccc(NC(=O)N3CCCC3)c2)ncc1I)c1cccs1
Activity [1]: 76%
Activity ([2]; filed as antagonist): 38%
Activity [3]: 85%
Activity [4]: 74%
Activity ([5]; filed as antagonist): 33%
Activity ([6]; filed as antagonist): 46%
Activity ([13]; filed as antagonist): 30%
Activity [7]: 77%
Activity [8]: 95%
Activity [9]: 99%
Activity [10]: 83%
Activity ([14]; filed as antagonist): 10%
Activity [11]: 92%
Activity [12]: 83%
